Values after ≈ are worked out from the molar mass of the structure shown. Read-outs that look alike come from different tables or passages of the source.
What was measured:
Format in all cases: cell-based
[1] = system: ten randomly selected isolates of T. tonsurans; assay: Susceptibility of ten T. tonsurans isolates, broth microdilution NCCLS M38-P; conditions: for MIC: Trichophyton tonsurans
Protocol: (§1) Isolates were tested using the method described in the National Committee for Clinical Laboratory Standards (NCCLS) document M38-P for filamentous fungi, with dermatophyte specific modifications described by Fernández-Torres et al, Current topics in Medical Mycology, 14-19 Feb. 1999.
(§2) Five dermatophyte isolates were, namely; T. rubrum, T. mentagrophytes, T. tonsurans, M. canis and M. gypseum, all of which produce lipases and some, phospholipase. These isolates were tested by the broth microdilution method according to NCCLS document M38-P, for activity against selected antifungal agents. In addition, ten randomly selected isolates of T. tonsurans were also tested. All isolates were maintained on SDA at 28° C. Candida parapsilosis (ATCC 20019) was used as the reference control is organism.
(§3) The microdilution plates used were a single lot of RPMI 1640 basal medium (JRH bioScience Inc. Lenexa, Kans., USA) with L-glutamine and without sodium bicarbonate, buffered to pH 7.0, at 25° C., with 0.165 M (MOPS) morpholinepropanesulfonic acid (Sigma).
(§4) Powdered drugs were dissolved in 100% dimethyl sulfoxide (DMSO), at concentrations 100 times higher than the final test concentration. All compounds were prepared in 100% (DMSO). For ITRA and TRB, two-fold drug dilutions were prepared in 100% DMSO at 100 times the final concentration, followed by further dilution 1:50 in RPMI medium, to yield 2× the final strength required for the test.
(§5) Fungal cultures were subcultured onto Potato Dextrose Agar and grown at 28° C. for 7-10 days. Fungal suspensions were covered with 5 ml of distilled water, and then colonies were scraped off with cotton tipped swabs. The resulting mixture of conidia and hyphae elements was withdrawn, transferred to a sterile tube and then vortexed with glass beads. After the particles settled, the upper homogeneous suspension was collected and its density adjusted by a densitometer to a 0.5 McFarland standard at the wavelength of 530 nm (80-85% transmittance). These stock suspensions were then diluted 1:50 with RPMI medium to obtain final working inoculum concentration ranging from 0.3×10^4 to 9×10^4 CFU/ml. Inoculum quantification was performed by plating 100 μl of the 1:1000 dilution of the adjusted inoculum on SDA plates, incubated at 28° C., and after 7 days of incubation, the colonies were counted.
(§6) Testing was based on NCCLS M38-P document for testing filamentous moulds. Testing was carried out in sterile 96-well flat bottomed microtitre plate. Columns 1 and 3 to 12 were filled with 100 μl of RPMI medium, leaving column 2 unfilled. Columns 1, 2 and 3 were filled with 100 μl of 2× drug concentration. Serial dilutions were then made by transferring 100 μl from column 3 to each column up to column 11, and 100 μl from column 11 was discarded. Column 12 served as drug free growth control. Finally, 100 μl of inoculum suspension was added to all wells except column 1, which acted as sterility control (Columns 1 and 12 served as sterility and growth control respectively). Plates were incubated at 28° C. for 7 days, and read at 3 days and 7 days of incubation. All testing was performed in duplicate, on three separate occasions.
(§7) Growth in microtitre trays were read by visual inspection by using an illuminated-reversed mirror. Growth in each well was compared with the “growth control” drug free well. The MIC end point for all the drugs was chosen to be the first well with 100% growth inhibition (i.e. the lowest drug concentration inhibiting growth).

M. canis = assay: Susceptibility of dermatophytes, broth microdilution NCCLS M38-P; conditions: for MIC: Microsporum canis
Protocol: as §1, §2, §3, §4, §5, §6, §7

T. rubrum = assay: as above; conditions: for MIC: Trichophyton rubrum
Protocol: as §1, §2, §3, §4, §5, §6, §7

T. mentagrophytes = assay: as above; conditions: 100% growth inhibition, 28° C.; for MIC: Trichophyton mentagrophytes
Protocol: as §1, §2, §3, §4, §5, §6, §7

M. gypseum = assay: as above; conditions: for MIC: Nannizzia gypsea
Protocol: as §1, §2, §3, §4, §5, §6, §7

T. tonsurans = assay: as above; conditions: for MIC: Trichophyton tonsurans
Protocol: as §1, §2, §3, §4, §5, §6, §7

## CCC(C)n1ncn(-c2ccc(N3CCN(c4ccc(OCC5COC(Cn6cncn6)(c6ccc(Cl)cc6Cl)O5)cc4)CC3)cc2)c1=O (stereo not shown) [Itraconazole]
[1]; T. tonsurans 1
  MIC Range: 0.03 to 0.125 µg/mL
[1]; T. tonsurans 2
  MIC Range: 0.125 to 2.0 µg/mL
[1]; T. tonsurans 4
  MIC Range: 0.5 µg/mL (≈ 0.709 µM)
[1]; T. tonsurans 5
  MIC Range: 0.25 to 0.5 µg/mL
[1]; T. tonsurans 6
  MIC Range: 0.25 to 2.0 µg/mL
[1]; T. tonsurans 7
  MIC Range: 0.5 to 1.0 µg/mL
[1]; T. tonsurans 8
  MIC Range: 0.25 to 2.0 µg/mL
[1]; T. tonsurans 9
  MIC Range: 0.125 to 1.0 µg/mL
[1]; T. tonsurans 10
  MIC Range: 0.25 to 1.0 µg/mL
[1]; T.tonsurans 3
  MIC Range: 0.06 to 0.5 µg/mL
[1]; T. tonsurans 1, read-out: MIC GM
  MIC: 0.12 µg/mL (≈ 0.17 µM)
[1]; T. tonsurans 2, read-out: MIC GM
  MIC: 0.397 µg/mL (≈ 0.563 µM)
[1]; T. tonsurans 2, read-out: MIC Mean
  MIC: 0.604 µg/mL (≈ 0.856 µM)
[1]; T. tonsurans 4, read-out: MIC GM
  MIC: 0.5 µg/mL (≈ 0.709 µM)
[1]; T. tonsurans 4, read-out: MIC Mean
  MIC: 0.5 µg/mL (≈ 0.709 µM)
[1]; T. tonsurans 5, read-out: MIC GM
  MIC: 0.44 µg/mL (≈ 0.624 µM)
[1]; T. tonsurans 5, read-out: MIC Mean
  MIC: 0.46 µg/mL (≈ 0.652 µM)
[1]; T. tonsurans 6, read-out: MIC GM
  MIC: 0.71 µg/mL (≈ 1.01 µM)
[1]; T. tonsurans 6, read-out: MIC Mean
  MIC: 0.96 µg/mL (≈ 1.36 µM)
[1]; T. tonsurans 7, read-out: MIC GM
  MIC: 0.56 µg/mL (≈ 0.794 µM)
[1]; T. tonsurans 7, read-out: MIC Mean
  MIC: 0.58 µg/mL (≈ 0.822 µM)
[1]; T. tonsurans 8, read-out: MIC GM
  MIC: 0.79 µg/mL (≈ 1.12 µM)
[1]; T. tonsurans 8, read-out: MIC Mean
  MIC: 1.08 µg/mL (≈ 1.53 µM)
[1]; T. tonsurans 9, read-out: MIC GM
  MIC: 0.445 µg/mL (≈ 0.631 µM)
[1]; T. tonsurans 9, read-out: MIC Mean
  MIC: 0.52 µg/mL (≈ 0.737 µM)
[1]; T. tonsurans 10, read-out: MIC GM
  MIC: 0.445 µg/mL (≈ 0.631 µM)
[1]; T. tonsurans 10, read-out: MIC Mean
  MIC: 0.5 µg/mL (≈ 0.709 µM)
[1]; T.tonsurans 3, read-out: MIC GM
  MIC: 0.196 µg/mL (≈ 0.278 µM)
[1]; T.tonsurans 3, read-out: MIC Mean
  MIC: 0.27 µg/mL (≈ 0.383 µM)
[1]; read-out: MIC Mean, T. tonsurans 1
  MIC: 0.21 µg/mL (≈ 0.298 µM)
M. canis; 100% growth inhibition, 28° C.
  MIC Range, M. canis: 0.125 to 2.0 µg/mL
M. canis; 100% growth inhibition, 28° C., read-out: MIC GM, M. canis
  MIC: 0.42 µg/mL (≈ 0.595 µM)
M. canis; 100% growth inhibition, 28° C., read-out: MIC Mean, M. canis
  MIC: 0.63 µg/mL (≈ 0.893 µM)
M. canis; Table 9, read-out: MIC M. canis
  MIC: 0.6 µg/mL (≈ 0.85 µM)
T. rubrum; 100% growth inhibition, 28° C.
  MIC Range, T. rubrum: 0.03 to 1.0 µg/mL
T. rubrum; 100% growth inhibition, 28° C., read-out: MIC GM, T. rubrum
  MIC: 0.171 µg/mL (≈ 0.242 µM)
T. rubrum; 100% growth inhibition, 28° C., read-out: MIC Mean, T. rubrum
  MIC: 0.276 µg/mL (≈ 0.391 µM)
T. rubrum; Table 9, read-out: MIC T. rubrum
  MIC: 0.3 µg/mL (≈ 0.425 µM)
T. mentagrophytes
  MIC Range, T. mentagrophyte: 0.06 to 1.0 µg/mL
T. mentagrophytes; read-out: MIC GM, T. mentagrophyte
  MIC: 0.26 µg/mL (≈ 0.368 µM)
T. mentagrophytes; read-out: MIC Mean, T. mentagrophyte
  MIC: 0.355 µg/mL (≈ 0.503 µM)
M. gypseum; 100% growth inhibition, 28° C.
  MIC Range, M. gypseum: 0.25 to 2.0 µg/mL
M. gypseum; 100% growth inhibition, 28° C., read-out: MIC GM, M. gypseum
  MIC: 0.74 µg/mL (≈ 1.05 µM)
M. gypseum; 100% growth inhibition, 28° C., read-out: MIC Mean, M. gypseum
  MIC: 0.93 µg/mL (≈ 1.32 µM)
M. gypseum; Table 9, read-out: MIC M. gypseum
  MIC: 0.9 µg/mL (≈ 1.28 µM)
T. tonsurans; 100% growth inhibition, 28° C.
  MIC Range, T. tonsurans: 0.25 to 2.0 µg/mL
T. tonsurans; 100% growth inhibition, 28° C., read-out: MIC GM, T. tonsurans
  MIC: 0.84 µg/mL (≈ 1.19 µM)
T. tonsurans; 100% growth inhibition, 28° C., read-out: MIC Mean, T. tonsurans
  MIC: 1.06 µg/mL (≈ 1.5 µM)
T. tonsurans; Table 9, read-out: MIC T. tonsurans
  MIC: 1.1 µg/mL (≈ 1.56 µM)
